Reference: patent US20250108038A1 (priority 2023, published 2025)
Where “and” joins values, the source holds several entries; their conditions need not be identical. Equal entries are not always repeated. Structures can show the parent of a compound that is named as a salt.

Test system: Long Evans rats
Test: Behavioral satiety sequence (BSS)
Assay type: in vivo, Long Evans rat
Source text: The Behavioural Satiety Sequence (BSS) is a technique used to evaluate physiological satiety. It is based on the expression of a sequence of behaviors including eating, grooming, locomotor activity, followed by resting, which are typically observed in rodents post-ingestion (Halford et al, 1998, Pharmacology Biochemistry and Behaviour. 61(2): 159-168). The BSS is a widely used model for determining the effects of novel pharmaceuticals on food intake and measures of satiety in rodents (Oliveira et al, 2011, Revista de Nutrição. 24(4) 619-628), and to discriminate the cause of reduced food intake following pharmacological manipulation. For example, treatments that may reduce food intake by non-specific mechanisms, such as immobility, malaise, and taste adulteration, will disrupt this sequence (Halford et al, 1998, Pharmacology Biochemistry and Behaviour. 61(2): 159-168).
Specifically, 12 male Long-Evans rats were food-deprived for 22 h with a 2 h feeding period each day. Rats were trained to consume daily food during the 2 h period over 25 days. The testing phase was initiated once the rats consistently consumed 16-18 g of food per day with ≤10% variance in amount of feed consumed. Feeding took place in designated individual boxes in a quiet room separate from the housing room. Continuous remote monitoring via video camera during feeding was used to assess the BSS. Food consumption was measured by weighing the total available food before and after the 2 h feeding window, correcting for spillage. Lorcaserin (1 mg/kg) was included as a reference control (Higgins et al, 2011, Neuropsychopharmacology. 37(5): 1177-1191). Subjects were tested using a repeated-measures, Latin square design with 2-3 days wash-out between treatment cycles.
On scheduled test days, animals were monitored remotely via video camera during the feeding access period. The occurrence of four mutually exclusive behaviors (eating/drinking, grooming, active, rest) were individually scored. Over the 2 h feeding period, behaviors were assessed every 30 seconds. Scores were compiled into 23 5 min timebins (timebin 24 was removed due to early removal of animals) and the frequency of each behavior within each timebin was calculated to determine a temporal frequency of each measure (Rodgers et al, 2010, Pharmacology Biochemistry and Behaviour. 97: 3-14). Percentage time was plotted for each behavioral sequence in each timebin to compare between treatment groups (Higgins et al, 2011, Neuropsychopharmacology. 37(5): 1177-1191).

[1] = 1 mg/kg, AVG of animals LT-1 to LT-12
[2] = 1 mg/kg, raw score per animal LT-1 to LT-12, hydrochloride
[3] = Lorcaserin 1 mg/kg s.c., AVG of the group
[4] = Lorcaserin 1 mg/kg s.c., raw score per animal, hydrochloride

C[C@H]1CNCCc2ccc(Cl)cc21 [lorcaserin, Lorcaserin hydrochloride, reference compound]
BSS scoring A (active), Time Bin 13 (60-65 TOTAL), AVG [1]: 0.20
BSS scoring A (active), Time Bin 14 (65-70 TOTAL), AVG [1]: 0.20
BSS scoring A (active), Time Bin 15 (70-75 TOTAL), AVG [1]: 0.12
BSS scoring A (active), Time Bin 16 (75-80 TOTAL), AVG [1]: 0.06
BSS scoring A (active), Time Bin 17 (80-85 TOTAL), AVG [1]: 0.07
BSS scoring A (active), Time Bin 18 (85-90 TOTAL), AVG [1]: 0.13
BSS scoring E (eating/drinking), Time Bin 13 (60-65 TOTAL), AVG [1]: 0.66
BSS scoring E (eating/drinking), Time Bin 14 (65-70 TOTAL), AVG [1]: 0.65
BSS scoring E (eating/drinking), Time Bin 15 (70-75 TOTAL), AVG [1]: 0.70
BSS scoring E (eating/drinking), Time Bin 16 (75-80 TOTAL), AVG [1]: 0.83
BSS scoring E (eating/drinking), Time Bin 17 (80-85 TOTAL), AVG [1]: 0.84
BSS scoring E (eating/drinking), Time Bin 18 (85-90 TOTAL), AVG [1]: 0.73
BSS scoring G (grooming), Time Bin 13 (60-65 TOTAL), AVG [1]: 0.07
BSS scoring G (grooming), Time Bin 14 (65-70 TOTAL), AVG [1]: 0.04
BSS scoring G (grooming), Time Bin 15 (70-75 TOTAL), AVG [1]: 0.12
BSS scoring G (grooming), Time Bin 16 (75-80 TOTAL), AVG [1]: 0.08
BSS scoring G (grooming), Time Bin 17 (80-85 TOTAL), AVG [1]: 0.04
BSS scoring G (grooming), Time Bin 18 (85-90 TOTAL), AVG [1]: 0.10
BSS scoring R (resting), Time Bin 13 (60-65 TOTAL), AVG [1]: 0.08
BSS scoring R (resting), Time Bin 14 (65-70 TOTAL), AVG [1]: 0.11
BSS scoring R (resting), Time Bin 15 (70-75 TOTAL), AVG [1]: 0.07
BSS scoring R (resting), Time Bin 16 (75-80 TOTAL), AVG [1]: 0.03
BSS scoring R (resting), Time Bin 17 (80-85 TOTAL), AVG [1]: 0.05
BSS scoring R (resting), Time Bin 18 (85-90 TOTAL), AVG [1]: 0.03
BSS scoring A (active), Time Bin 13 (60-65 TOTAL) [2]: 6 and 5 and 2 (2×) and 1 (2×) and 0 (4×) and 4 and 3
BSS scoring A (active), Time Bin 14 (65-70 TOTAL) [2]: 4 (3×) and 2 (4×) and 0 and 1 (4×)
BSS scoring A (active), Time Bin 15 (70-75 TOTAL) [2]: 0 (5×) and 1 (4×) and 4 (2×) and 2
BSS scoring A (active), Time Bin 16 (75-80 TOTAL) [2]: 0 (9×) and 2 and 1 and 4
BSS scoring A (active), Time Bin 17 (80-85 TOTAL) [2]: 0 (8×) and 2 (4×)
BSS scoring A (active), Time Bin 18 (85-90 TOTAL) [2]: 4 and 0 (5×) and 1 (4×) and 6 and 2
BSS scoring E (eating/drinking), Time Bin 13 (60-65 TOTAL) [2]: 4 and 3 and 6 and 5 (2×) and 7 (2×) and 8 (3×) and 9 (2×)
BSS scoring E (eating/drinking), Time Bin 14 (65-70 TOTAL) [2]: 6 (2×) and 5 and 7 and 10 and 4 (2×) and 8 (3×) and 3 and 9
BSS scoring E (eating/drinking), Time Bin 15 (70-75 TOTAL) [2]: 6 (3×) and 9 (4×) and 2 and 10 and 3 and 8 and 7
BSS scoring E (eating/drinking), Time Bin 16 (75-80 TOTAL) [2]: 10 (7×) and 1 and 9 (2×) and 5 and 6
BSS scoring E (eating/drinking), Time Bin 17 (80-85 TOTAL) [2]: 8 (3×) and 9 (3×) and 10 (3×) and 7 (2×) and 6
BSS scoring E (eating/drinking), Time Bin 18 (85-90 TOTAL) [2]: 4 and 9 (2×) and 6 (2×) and 10 (3×) and 7 (3×) and 3
BSS scoring G (grooming), Time Bin 13 (60-65 TOTAL) [2]: 0 (8×) and 2 (2×) and 3 and 1
BSS scoring G (grooming), Time Bin 14 (65-70 TOTAL) [2]: 0 (8×) and 1 (3×) and 2
BSS scoring G (grooming), Time Bin 15 (70-75 TOTAL) [2]: 0 (6×) and 3 and 1 (4×) and 7
BSS scoring G (grooming), Time Bin 16 (75-80 TOTAL) [2]: 0 (10×) and 6 and 3
BSS scoring G (grooming), Time Bin 17 (80-85 TOTAL) [2]: 0 (8×) and 1 (3×) and 2
BSS scoring G (grooming), Time Bin 18 (85-90 TOTAL) [2]: 2 (3×) and 1 (3×) and 0 (5×) and 3
BSS scoring R (resting), Time Bin 13 (60-65 TOTAL) [2]: 0 (7×) and 2 and 4 and 1 (3×)
BSS scoring R (resting), Time Bin 14 (65-70 TOTAL) [2]: 0 (7×) and 1 (2×) and 4 (2×) and 3
BSS scoring R (resting), Time Bin 15 (70-75 TOTAL) [2]: 4 and 1 (2×) and 0 (8×) and 2
BSS scoring R (resting), Time Bin 16 (75-80 TOTAL) [2]: 0 (9×) and 1 (2×) and 2
BSS scoring R (resting), Time Bin 17 (80-85 TOTAL) [2]: 2 (2×) and 1 (2×) and 0 (8×)
BSS scoring R (resting), Time Bin 18 (85-90 TOTAL) [2]: 0 (9×) and 2 and 1 (2×)
effect on the behavioral satiety sequence (BSS) (Compound I-19 0.1-3 mg/kg IP, lorcaserin 1 mg/kg SC): preserved the BSS at the 1 mg/kg dose
BSS scoring A (active), Time Bin 7 (30-35 TOTAL), AVG [3]: 0.18
BSS scoring A (active), Time Bin 8 (35-40 TOTAL), AVG [3]: 0.21
BSS scoring A (active), Time Bin 9 (40-45 TOTAL), AVG [3]: 0.10
BSS scoring A (active), Time Bin 10 (45-50 TOTAL), AVG [3]: 0.16
BSS scoring A (active), Time Bin 11 (50-55 TOTAL), AVG [3]: 0.09
BSS scoring A (active), Time Bin 12 (55-60 TOTAL), AVG [3]: 0.10
BSS scoring E (eating/drinking), Time Bin 7 (30-35 TOTAL), AVG [3]: 0.68
BSS scoring E (eating/drinking), Time Bin 8 (35-40 TOTAL), AVG [3]: 0.68
BSS scoring E (eating/drinking), Time Bin 9 (40-45 TOTAL), AVG [3]: 0.74
BSS scoring E (eating/drinking), Time Bin 10 (45-50 TOTAL), AVG [3]: 0.78
BSS scoring E (eating/drinking), Time Bin 11 (50-55 TOTAL), AVG [3]: 0.75
BSS scoring E (eating/drinking), Time Bin 12 (55-60 TOTAL), AVG [3]: 0.83
BSS scoring G (grooming), Time Bin 7 (30-35 TOTAL), AVG [3]: 0.12
BSS scoring G (grooming), Time Bin 8 (35-40 TOTAL), AVG [3]: 0.09
BSS scoring G (grooming), Time Bin 9 (40-45 TOTAL), AVG [3]: 0.12
BSS scoring G (grooming), Time Bin 10 (45-50 TOTAL), AVG [3]: 0.01
BSS scoring G (grooming), Time Bin 11 (50-55 TOTAL), AVG [3]: 0.04
BSS scoring G (grooming), Time Bin 12 (55-60 TOTAL), AVG [3]: 0.05
BSS scoring R (resting), Time Bin 7 (30-35 TOTAL), AVG [3]: 0.03
BSS scoring R (resting), Time Bin 8 (35-40 TOTAL), AVG [3]: 0.03
BSS scoring R (resting), Time Bin 9 (40-45 TOTAL), AVG [3]: 0.04
BSS scoring R (resting), Time Bin 10 (45-50 TOTAL), AVG [3]: 0.06
BSS scoring R (resting), Time Bin 11 (50-55 TOTAL), AVG [3]: 0.12
BSS scoring R (resting), Time Bin 12 (55-60 TOTAL), AVG [3]: 0.02
BSS scoring A (active), Time Bin 7 (30-35 TOTAL) [4]: 0 (4×) and 3 and 1 (3×) and 4 and 2 (2×) and 7
BSS scoring A (active), Time Bin 8 (35-40 TOTAL) [4]: 4 (2×) and 2 (2×) and 1 (4×) and 3 (3×) and 0
BSS scoring A (active), Time Bin 9 (40-45 TOTAL) [4]: 0 (7×) and 2 and 1 (3×) and 7
BSS scoring A (active), Time Bin 10 (45-50 TOTAL) [4]: 2 (2×) and 4 and 0 (7×) and 10 and 1
BSS scoring A (active), Time Bin 11 (50-55 TOTAL) [4]: 0 (6×) and 2 (2×) and 1 (3×) and 4
BSS scoring A (active), Time Bin 12 (55-60 TOTAL) [4]: 2 (2×) and 0 (6×) and 1 (3×) and 5
BSS scoring E (eating/drinking), Time Bin 7 (30-35 TOTAL) [4]: 6 (4×) and 7 (2×) and 8 (2×) and 5 and 3 and 10 (2×)
BSS scoring E (eating/drinking), Time Bin 8 (35-40 TOTAL) [4]: 5 (3×) and 7 and 9 and 8 (3×) and 4 and 6 (2×) and 10
BSS scoring E (eating/drinking), Time Bin 9 (40-45 TOTAL) [4]: 10 (2×) and 7 (2×) and 9 (2×) and 8 (3×) and 2 and 6 and 5
BSS scoring E (eating/drinking), Time Bin 10 (45-50 TOTAL) [4]: 8 (2×) and 6 (2×) and 10 (4×) and 0 and 9 (2×) and 7
BSS scoring E (eating/drinking), Time Bin 11 (50-55 TOTAL) [4]: 10 (3×) and 7 (3×) and 1 and 8 (4×) and 6
BSS scoring E (eating/drinking), Time Bin 12 (55-60 TOTAL) [4]: 6 and 7 (2×) and 9 (5×) and 10 (3×) and 5
BSS scoring G (grooming), Time Bin 7 (30-35 TOTAL) [4]: 3 and 1 (3×) and 2 (4×) and 0 (4×)
BSS scoring G (grooming), Time Bin 8 (35-40 TOTAL) [4]: 1 (7×) and 0 (3×) and 2 (2×)
BSS scoring G (grooming), Time Bin 9 (40-45 TOTAL) [4]: 0 (4×) and 1 (5×) and 2 and 3 and 4
BSS scoring G (grooming), Time Bin 10 (45-50 TOTAL) [4]: 0 (11×) and 1
BSS scoring G (grooming), Time Bin 11 (50-55 TOTAL) [4]: 0 (7×) and 1 (5×)
BSS scoring G (grooming), Time Bin 12 (55-60 TOTAL) [4]: 2 (2×) and 0 (8×) and 1 (2×)
BSS scoring R (resting), Time Bin 7 (30-35 TOTAL) [4]: 1 (3×) and 0 (9×)
BSS scoring R (resting), Time Bin 8 (35-40 TOTAL) [4]: 0 (9×) and 1 (3×)
BSS scoring R (resting), Time Bin 9 (40-45 TOTAL) [4]: 0 (9×) and 1 (2×) and 3
BSS scoring R (resting), Time Bin 10 (45-50 TOTAL) [4]: 0 (8×) and 4 and 1 (3×)
BSS scoring R (resting), Time Bin 11 (50-55 TOTAL) [4]: 0 (7×) and 2 (3×) and 7 and 1
